Structures can show the parent of a compound that is named as a salt.

For this assay, the target named is T1, human receptor found in pancreatic islet cells (Homo sapiens, UniProt Q7Z601).
T1 sequence (Q7Z601 1-462): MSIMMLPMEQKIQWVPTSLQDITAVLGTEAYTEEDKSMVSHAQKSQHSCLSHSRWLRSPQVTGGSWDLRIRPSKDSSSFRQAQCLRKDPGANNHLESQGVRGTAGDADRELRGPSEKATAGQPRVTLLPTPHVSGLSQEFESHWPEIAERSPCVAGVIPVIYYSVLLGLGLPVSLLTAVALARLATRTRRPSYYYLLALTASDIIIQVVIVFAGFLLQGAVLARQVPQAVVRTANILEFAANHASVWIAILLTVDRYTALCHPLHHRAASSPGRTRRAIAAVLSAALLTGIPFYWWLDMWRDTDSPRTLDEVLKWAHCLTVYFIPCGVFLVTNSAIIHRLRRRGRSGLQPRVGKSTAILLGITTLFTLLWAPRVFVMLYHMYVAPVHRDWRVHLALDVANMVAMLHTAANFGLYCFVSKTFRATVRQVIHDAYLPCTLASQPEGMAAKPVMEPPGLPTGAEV
In words: Activation of intracellular IP3 signaling in transfected cells (Activation Assay). The format is cell-based. To be noted: calculated from IP3 concentration measurements in cells transfected with the human receptor. How it is done: Table 12 provides exemplary compounds that were prepared and assessed, following protocols known to those of skilled in the art, for activation of intracellular inositol trisphosphate (IP3) signaling pathways that lead to elevation of intracellular calcium concentration. EC50 values provided in Table 12 were calculated from IP3 concentration measurements in cells transfected with a human receptor found in pancreatic islet cells, inter alia.
Usually EC50 stands for the concentration needed to bring the measured effect to its halfway point. As for `Cn1ncnc1-c1cc(-c2ccncc2)cc2c1CCN2C(=O)[C@H](Cc1ccccc1)NCc1cscn1` [Example 61, (2S)-1-(4-(2-Methyl-2H-1,2,4-triazol-3-yl)-6-(pyridin-4-yl)indolin-1-yl)-3-phenyl-2-(thiazol-4-ylmethylamino)propan-1-one], the EC50 was 1000 to 10000 nM.
The figure for `CNC(=O)c1cc(-c2ccncc2)cc2c1CCN2C(=O)[C@H](Cc1ccccc1)NCc1cscn1` [Example 62, (S)—N-Methyl-1-(3-phenyl-2-(thiazol-4-ylmethylamino)propanoyl)-6-(pyridin-4-yl)indoline-4-carboxamide] is 100 to 1000 nM; for `CC(C)(C(=O)O)c1cc(NC(=O)[C@H](Cc2ccc(Cl)cc2)NCc2cscn2)cc(-c2ccncc2)c1` [Example 63.1, (S)-2-(3-(3-(4-Chlorophenyl)-2-(thiazol-4-ylmethylamino)propanamido)-5-(pyridin-4-yl)phenyl)-2-methylpropanoic acid] it is 100 to 1000 nM; for `CC(C)(C(=O)O)c1cc(NC(=O)[C@H](Cc2ccccc2)NC[C@H]2CCCO2)cc(-c2ccncc2)c1` [Example 63.2] it is 1000 to 10000 nM.
Take `COC(=O)COc1ccc(-c2ccnc(C)c2)cc1NC(=O)[C@H](Cc1ccccc1)NCc1cscn1` [Example 64, Methyl 2-(4-(2-methylpyridin-4-yl)-2-((S)-3-phenyl-2-(thiazol-4-ylmethylamino)propanamido)phenoxy)acetate]: the EC50 was 50 to 100 nM.
As for `COC(=O)COc1cc(NC(=O)[C@H](Cc2ccccc2)NCc2cscn2)cc(-c2ccnc(C)c2)c1` [Example 65, Methyl 2-(3-(2-methylpyridin-4-yl)-5-((S)-3-phenyl-2-(thiazol-4-ylmethylamino)propanamido)phenoxy)acetate], the figure is 100 to 1000 nM.
Turning to `Cc1cc(-c2cc(-c3n[nH]c(=S)o3)c3c(c2)N(C(=O)[C@H](Cc2ccccc2)NCc2cscn2)CC3)ccn1` [Example 66, (2S)-1-(6-(2-Methylpyridin-4-yl)-4-(5-thioxo-4,5-dihydro-1,3,4-oxadiazol-2-yl)indolin-1-yl)-3-phenyl-2-(thiazol-4-ylmethylamino)propan-1-one], the EC50 was below 50 nM.
In the case of `Cc1nnc(-c2cc(-c3ccncc3)cc3c2CCN3C(=O)[C@H](Cc2ccccc2)NCc2cscn2)o1` [Example 67, (2S)-1-(4-(5-Methyl-1,3,4-oxadiazol-2-yl)-6-(pyridin-4-yl)indolin-1-yl)-3-phenyl-2-(thiazol-4-ylmethylamino)propan-1-one], the EC50 is 50 to 100 nM.
With `O=C([C@H](Cc1ccccc1)NCc1cscn1)N1CCc2c(-c3nnco3)cc(-c3ccncc3)cc21` [Example 68, (2S)-1-(4-(1,3,4-Oxadiazol-2-yl)-6-(pyridin-4-yl)indolin-1-yl)-3-phenyl-2-(thiazol-4-ylmethylamino)propan-1-one], the EC50 was 100 to 1000 nM.
`Cc1nnc(-c2cc(-c3ccncc3)cc3c2CCN3C(=O)[C@H](Cc2ccccc2)NCc2cscn2)[nH]1` [Example 69, (2S)-1-(4-(5-Methyl-4H-1,2,4-triazol-3-yl)-6-(pyridin-4-yl)indolin-1-yl)-3-phenyl-2-(thiazol-4-ylmethylamino)propan-1-one]: the EC50 is 50 to 100 nM.
The figure for `O=C(NCC1CC1)c1cc(NC(=O)[C@H](Cc2ccccc2)NCc2cscn2)cc(-c2ccncc2)c1` [Example 70, (S)—N-(Cyclopropylmethyl)-3-(3-phenyl-2-(thiazol-4-ylmethylamino)propanamido)-5-(pyridin-4-yl)benzamide] is 50 to 100 nM.
With `NC(=O)CNC(=O)c1cc(-c2ccncc2)cc2c1CCN2C(=O)[C@H](Cc1ccccc1)NCc1cscn1` [Example 71, (S)—N-(2-Amino-2-oxoethyl)-1-(3-phenyl-2-(thiazol-4-ylmethylamino)propanoyl)-6-(pyridin-4-yl)indoline-4-carboxamide], the EC50 is 50 to 100 nM.
`COC(=O)c1cc(-c2ccnc(C)c2)cc2c1CCN2C(=O)[C@H](Cc1ccccc1)NCc1ccccn1` [Example 72, Methyl 6-(2-methylpyridin-4-yl)-1-((S)-3-phenyl-2-(pyridin-2-ylmethylamino)propanoyl)indoline-4-carboxylate]: the EC50 was 50 to 100 nM.
For the molecule `CC(C)(C)OC(=O)c1cc(NC(=O)[C@H](Cc2ccccc2)NC2(c3ccccn3)CC2)cc(-c2ccncc2)c1` [Example 73, (S)— tert-Butyl 3-(3-phenyl-2-(1-(pyridin-2-yl)cyclopropylamino)propanamido)-5-(pyridin-4-yl)benzoate], the EC50 is 100 to 1000 nM.
As to `CN(C)CCNC(=O)c1cc(NC(=O)[C@H](Cc2ccccc2)NCc2cscn2)cc(-c2ccncc2)c1` [Example 74, (S)—N-(2-(dimethylamino)ethyl)-3-(3-phenyl-2-(thiazol-4-ylmethylamino)propanamido)-5-(pyridin-4-yl)benzamide bis trifluoroacetate salt], the EC50 is 100 to 1000 nM.
As to `Cc1cc(-c2ccc(OCCN(C)C)c(NC(=O)[C@H](Cc3ccccc3)NCc3cscn3)c2)ccn1` [Example 75, (2S)—N-(2-(2-(Dimethylamino)ethoxy)-5-(2-methylpyridin-4-yl)phenyl)-3-phenyl-2-(thiazol-4-ylmethylamino)propanamide trifluoroacetate], the EC50 was 100 to 1000 nM.
As for `Cc1cc(-c2cc(NC(=O)[C@H](Cc3ccccc3)NCc3ccccn3)cc(OCCN(C)C)c2)ccn1` [Example 76, (2S)—N-(3-(2-(Dimethylamino)ethoxy)-5-(2-methylpyridin-4-yl)phenyl)-3-phenyl-2-(pyridin-2-ylmethylamino)propanamide], the figure is 100 to 1000 nM; as for `COC(=O)CNC(=O)c1cc(-c2ccncc2)cc2c1CCN2C(=O)[C@H](Cc1ccccc1)NCc1cscn1` [Example 77, (S)-Methyl 2-(1-(3-phenyl-2-(thiazol-4-ylmethylamino)propanoyl)-6-(pyridin-4-yl)indoline-4-carboxamido)acetate], 100 to 1000 nM.
The figure for `Cc1cc(-c2cnc(OCC(=O)OC(C)(C)C)c(NC(=O)[C@H](Cc3ccccc3)NCc3cscn3)c2)ccn1` [Example 78, tert-Butyl 2-(5-(2-methylpyridin-4-yl)-3-((S)-3-phenyl-2-(thiazol-4-ylmethylamino)propanamido)pyridin-2-yloxy)acetate] is below 50 nM.
With `COC(=O)C1CN(Cc2cc(NC(=O)[C@H](Cc3ccccc3)NCc3cscn3)cc(-c3ccnc(C)c3)c2)C1` [Example 79], the EC50 was 100 to 1000 nM.
As to `COC(=O)C1CN(Cc2cc(NC(=O)[C@H](Cc3ccccc3)NCc3ccccn3)cc(-c3ccnc(C)c3)c2)C1` [Example 80, Methyl 1-((16S)-3-(2-methylpyridin-4-yl)-5-((S)-3-phenyl-2-(pyridin-2-ylmethylamino)propanamido)benzyl)azetidine-3-carboxylate], the EC50 is 100 to 1000 nM.
On to `O=C(NCCN1CCNC1=O)c1cc(-c2ccncc2)cc2c1CCN2C(=O)[C@H](Cc1ccccc1)NCc1cscn1` [Example 81, (S)—N-(2-(2-Oxoimidazolidin-1-yl)ethyl)-1-(3-phenyl-2-(thiazol-4-ylmethylamino)propanoyl)-6-(pyridin-4-yl)indoline-4-carboxamide], for which the EC50 is 100 to 1000 nM.
Regarding `Cn1cc(-c2ccc3c(c2)N(C(=O)[C@@H](N)Cc2ccccc2)CC3)cn1` [Example 82, (2S)-2-Amino-1-(6-(1-methyl-1H-pyrazol-4-yl)indolin-1-yl)-3-phenylpropan-1-one hydrochloride], the EC50 is 1000 to 10000 nM.
With `N[C@@H](Cc1ccccc1)C(=O)N1CCc2ccc(-c3ccn[nH]3)cc21` [Example 83, (2S)-1-(6-(1H-pyrazol-5-yl)indolin-1-yl)-2-amino-3-phenylpropan-1-one Ditrifluoroacetate], the half-maximal effective concentration (EC50) was 1000 to 10000 nM.
Regarding `O=C([C@H](Cc1ccccc1)NCc1cscn1)N1CCc2ccc(-c3cncnc3)cc21` [Example 84, (S)-3-Phenyl-1-(6-(pyrimidin-5-yl)indolin-1-yl)-2-(thiazol-4-ylmethylamino)propan-1-one], the EC50 is 1000 to 10000 nM.
For `O=C([C@H](Cc1ccccc1)NCc1cscn1)N1CCc2ccc(-c3ccc(F)cc3)cc21` [Example 85, (S)-1-[6-(4-Fluoro-phenyl)-2,3-dihydro-indol-1-yl]-3-phenyl-2-[(thiazol-4-ylmethyl)-amino]-propan-1-one Trifluoroacetate], the EC50 is 100 to 1000 nM.

Source of the values: patent publication US8785468B2, “Phenylalanine amide derivatives useful for treating insulin-related diseases and conditions” (Amgen Inc., priority 2009, dated 2014).
